Assay results taken from patent US20210236539A1, “METHOD OF PROPHYLAXIS OF ZIKA VIRUS INFECTION” (priority 2016, published 2021).

Tests used:
[1] = tested on: Dengue Type 2 virus; experiment: Activity against Dengue Type 2 virus (DSP0196); format: cell-based
Description: (§1) The activity of dendrimeric compounds against Dengue virus (D) and West Nile Fever virus (WNF) was tested.
b) The compound [BHAlys] [Lys]16 [CSNH-4-Ph(SO3Na)]32 (SPL compound 2792) was tested for activity against Dengue Type 2 virus (DSP0196). (the compound has a sulfonic acid- or sulfonate-containing moiety which is […]

[2] = tested on: West Nile Fever virus; experiment: Activity against West Nile Fever virus (DSP0114), 4 concentration assay; format: cell-based
Description: as §1
a) The compound [BHAlys][Lys]16[CONH-Ph-3,5-(SO3Na)2]32 (SPL compound 7674) was tested for activity against West Nile Fever virus (DSP0114) (the compound has a sulfonic acid- or sulfonate-containing moiety which is
A 4 concentration assay was used. The positive control was interferon-alpha.

| Substance | activity against Dengue Type 2 virus (in words) [1] | EC50 NR ([1]; Dengue Type 2 virus, NR readout) | EC50 VIS ([1]; Dengue Type 2 virus, VIS readout) | activity against West Nile Fever virus (in words) [2] | EC50 NR ([2]; West Nile Fever virus, NR readout) | EC50 VIS ([2]; West Nile Fever virus, VIS readout) |
| --- | --- | --- | --- | --- | --- | --- |
| [BHAlys] [Lys]16 [CSNH-4-Ph(SO3Na)]32 [SPL compound 2792] | not active | 50.3 µg/mL | > 100 µg/mL | – | – | – |
| [BHAlys][Lys]16[CONH-Ph-3,5-(SO3Na)2]32 [SPL compound 7674] | – | – | – | not active | 34 µg/mL | 22 µg/mL |
